Results as given in patent US8383816B2, “Aryl-quinolyl compounds and their use” (Cancer Research Technology Limited, priority 2008, dated 2013).
pIC50: −log10 of the molar value.

Assays:
[1] = biological target: B-RAF (Homo sapiens, UniProt P15056, V600E); experiment: DELFIA Kinase Assay; assay type: biochemical; settings: 100 μM ATP
Protocol: Biological Methods—DELFIA Kinase Assay
Compounds were assessed by a kinase assay performed according to the following protocol.
DELFIA Kinase Buffer (DKB):
DKB1 (DKB with B-RAF and MEK Protein):
Combine 4950 μL of DKB and 50 μL of 2.5 mg/ml GST-MEK stock (to give […] of MEK per 40 μL). Then add 22.5 μL of B-RAF to give ˜0.2 μL of B-RAF per 40 μL.
DKB2 (DKB with MEK Protein):
Combine 4950 μL of DKB and 50 μL of 2.5 mg/ml GST-MEK stock (to give 1 mg of MEK per 40 μL). Use 500 μL of this for the blow out (BO) and the empty vector (EV) control.
100 mM stock, dilute to 500 μM to give 100 μM final concentration in assay.
Inhibitors (Test Compounds):
Phospho-MEK½ CST #9121S diluted 1:1000 in DELFIA assay buffer (AB). Preincubate antibody in the AB for 30 minutes at room temperature prior to use.
Anti-rabbit-Eur labelled secondary Perkin Elmer #AD0105 diluted 1:1000 in DELFIA assay buffer (AB). Preincubate antibody in the AB for 30 minutes at room temperature prior to use. (Primary and secondary antibodies were incubated together.)
1. Preblock wells with 5% milk in TBS for 1 hour.
2. Wash wells with 3× with 200 μL TBS.
3. Plate out 40 μL of DKB1 for all inhibitors (test compounds), DMSO control, and optionally other control compounds.
4. Plate out 40 μL of DKB2 for BO and EV wells.
5. Add inhibitors (test compounds) at 0.5 μL per well according to desired plate layout.
6. Add 0.5 μL DMSO to vehicle control wells.
7. Add 2 μL of B-RAF to BO and EV wells.
8. Pre-incubate with inhibitors (test compounds) for 10 minutes at room temperature with shaking.
9. Add 10 μL of 500 μM ATP stock, in DKB, to give 100 μM assay concentration.
10. Seal plates with TopSeal and incubate at room temperature with shaking for 45 minutes.
11. Wash plates 3× with 200 μL 0.1% Tween20/Water to terminate reaction.
12. Add 50 μL per well of antibody mix and incubate for 1 hour at room temperature with shaking.
13. Wash plates 3× with 200 μL 0.1% Tween20/Water.
14. Add 100 μL DELFIA enhancement solution per well, cover in foil, and incubate at room temperature for 30 minutes with shaking.
15. Read on Victor using Europium protocol.
(§1) Values for the blank (Empty Vector) are subtracted from all values. The DMSO controls are set as 100% activity and assay points (the response) are calculated as a percentage of the DMSO control. Data are plotted using Graphpad Prism software and a non-linear regression line is calculated using a variable slope sigmoidal dose-response equation (Y=Bottom+(Top−Bottom)/(1+10^((LogEC50−X)*HillSlope)) where X is the logarithm of concentration. Y is the response). The IC50 generated by this procedure is the concentration of the drug that produces a percentage control fluorescence value midway between the saturation, and zero-effect plateaus. Three independent assays are usually performed and the mean IC50 is reported.

[2] = test system: pERK; experiment: Cell Based Phospho-ERK Assay; settings: 6 h, cells incubated with test compound for 6 hours
Protocol: Biological Methods—Cell Based Phosho-ERK Assay
Compounds were assessed using a cell-based assay which was performed according to the following protocol.
Plate out 16,000 cells/well in 99 μL medium in a 96-well plate.
1. Add 1 μL inhibitor to the cells […].
2. Incubate the cells with test compound for 6 hours at 37° C.
3. Aspirate off the solution from all of the wells.
4. Fixate the cells with 100 μL 4% formaldehyde/0.25% Triton X-100 PBS per well.
5. Incubate the plate for 1 hour at 4° C.
6. Aspirate off the fixing solution and add 300 μL TBS per well.
7. Leave the plate overnight at 4° C.
1. Wash the plate 2× with 200 μL PBS per well.
2. Block with 100 μL 5% dried milk in TBS.
3. Incubate the plate for 20 minutes at 37° C.
4. Wash the plate 2× with 0.1% tween/H2O.
5. Add 50 μL of 3 μg/mL primary antibody pERK (Sigma M8159), diluted in 5% milk powder/TBS, to each well.
6. Incubate the plate for 2 hours at 37° C.
7. Wash the plate 3× with 0.1% tween/H2O.
8. Add 50 μL of 0.45 μg/mL secondary Europium-labelled anti-mouse antibody (Perkin Elmer) to each well.
9. Incubate the plate for 1 hour at 37° C.
10. Wash the plate 3× with 0.1% tween/H2O.
11. Add 100 μL enhancement solution (Perkin Elmer) to each well.
12. Leave the plate for approximately 10 minutes at room temperature before gently shaking the plate.
13. Read Europium Time Resolved Fluorescence in Victor2.
14. Wash the plate 2× with 0.1% tween/H2O.
15. Measure the protein concentration with BCA (Sigma) by adding 200 μL of solution per well.
16. Incubate the plate for 30 minutes at 37° C.
17. Read absorbance levels at 570 nm in a plate reader.
Note that Europium counts are normalised for protein levels by dividing counts by absorbance.
as §1, with “(no cells)” for “(Empty Vector)”

[3] = test system: WM266.4 melanoma cells; experiment: SRB Cell Proliferation Assay (SRB GI50); assay type: cell-based; settings: Homo sapiens, WM 266-4, 144 h, 6 days growth
Protocol: Biological Methods—SRB Cell Proliferation Assay (SRB GI50)
Cultures of WM266.4 melanoma cells are routinely cultured in DMEM/10% foetal bovine serum, at 37° C., in 5% CO2 water saturated atmosphere. Cultures are maintained in exponential growth phase by sub-culturing before having become confluent (3-5 day intervals). Single cell suspensions are prepared by harvesting an 80 cm^2 tissue culture flask with 5 mL commercial trypsin EDTA. After 5 minutes, the detached cells are mixed with 5 mL fully complemented culture medium and centrifugally pelleted (1000 rpm for 7 minutes). After aspirating the supernatant, the cell pellet is re-suspended in 10 mL fresh medium and the cells fully disaggregated by drawing the whole volume up/down 5 times through a 19-gauge needle. The concentration of the cells is determined using a haemocytometer (1/10 dilution). A suitable volume to give at least a 2-fold excess for the number of tests being conducted, typically 100-200 mL, is prepared by diluting the cell suspension to 10,000/mL, and 100 μL/well dispensed into 96 well plates using a programmable 8-channel peristaltic pump, giving 1000 cells/well, leaving column 12 blank. The plates are returned to the incubator for 24 hours to allow the cells to re-attach.
The compounds being tested are prepared at 20 mM in dimethylsulphoxide. Aliquots (200 μL) are diluted into 20 mL culture medium giving 200 μM, and 10 serial dilutions of 3× performed by transferring 5 mL to 10 mL. Aliquots (100 μL) of each dilution are added to the wells, using an 8-channel pipettor, thus performing a final further 2× dilution, and giving doses ranging from 100 μM to 0.005 μM. Column 11 receives plain culture medium only. Each compound is tested in quadruplicate, each replicate being the average of four wells, and two plates per compound.
After a further 6 days growth, the plates are emptied, and the cells are fixed in 10% trichloroacteic acid for 10 minutes on ice. After thorough rinsing in running tap water, the plates are dried, and stained by adding 50 μL of a solution of 0.1% sulphorhodamine-B in 1% acetic acid, for 10 minutes at room temperature. The stain is poured out and the plates thoroughly rinsed under a stream of 1% acetic acid, thus removing unbound stain, and dried. The bound stain is taken into solution by addition of 150 μL Tris buffer pH 8, followed by 10 minutes on a plate-shaker (approximately 500 rpm). The absorbance at 540 nm in each well (being proportional to the number of cells present) is determined using a plate reader.
After averaging the results in rows A-D and E-H, the blank value (row 12) is subtracted, and results expressed as percentage of the untreated value (row 11). […] The GI50 generated by this procedure is the concentration of the drug that produces a percentage control A540 midway between the saturation, and zero-effect plateaus.

Chain of B-RAF (P15056 whole entry V600E): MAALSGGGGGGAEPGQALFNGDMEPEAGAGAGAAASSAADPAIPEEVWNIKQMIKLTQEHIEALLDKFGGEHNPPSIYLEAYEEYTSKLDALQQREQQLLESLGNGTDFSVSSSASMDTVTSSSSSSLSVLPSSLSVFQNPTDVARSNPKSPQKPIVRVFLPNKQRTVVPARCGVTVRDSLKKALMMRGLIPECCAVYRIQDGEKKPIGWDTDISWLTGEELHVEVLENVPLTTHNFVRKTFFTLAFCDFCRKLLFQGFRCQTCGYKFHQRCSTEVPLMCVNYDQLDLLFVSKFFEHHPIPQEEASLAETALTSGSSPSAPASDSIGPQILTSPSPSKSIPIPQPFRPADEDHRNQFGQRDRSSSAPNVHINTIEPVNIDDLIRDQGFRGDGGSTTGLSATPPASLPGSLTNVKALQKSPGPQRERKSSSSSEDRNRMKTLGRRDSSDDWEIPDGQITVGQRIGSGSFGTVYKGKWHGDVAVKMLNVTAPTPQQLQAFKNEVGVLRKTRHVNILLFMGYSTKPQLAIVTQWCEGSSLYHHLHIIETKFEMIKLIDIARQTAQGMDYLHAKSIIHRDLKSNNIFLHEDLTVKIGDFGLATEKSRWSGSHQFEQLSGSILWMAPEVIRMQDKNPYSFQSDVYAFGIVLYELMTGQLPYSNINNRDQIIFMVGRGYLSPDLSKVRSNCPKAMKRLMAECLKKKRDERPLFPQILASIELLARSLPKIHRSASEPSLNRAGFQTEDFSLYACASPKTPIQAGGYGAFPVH

C=CCn1nc(C(C)(C)C)cc1NC(=O)Nc1ccc(Oc2ccnc3[nH]c(=O)cnc23)c2cccnc12 [BB-013]
pIC50 [1]: ≥ 6.00 | pIC50 [2]: ≥ 5.00 | GI50 [3]: ≤ 10 µM
